Source: ChEMBL document CHEMBL1130164 (J Med Chem, 1997)

Key:
[1] = biological target: cAMP-dependent protein kinase catalytic subunit alpha (Homo sapiens, UniProt P17612); test: Inhibitory concentration against recombinant human cAMP-dependent Protein kinase A
[2] = biological target: T1, Protein kinase C beta type (Homo sapiens, UniProt P05771); test: Inhibitory concentration against recombinant human Protein kinase C beta 1 isozyme
[3] = biological target: Protein kinase C gamma type (Homo sapiens, UniProt P05129); test: Inhibitory concentration against recombinant human Protein kinase C gamma isozyme
[4] = biological target: Protein kinase C eta type (Homo sapiens, UniProt P24723); test: Inhibitory concentration against recombinant human Protein kinase C eta isozyme
[5] = biological target: T2, Protein kinase C epsilon type (Homo sapiens, UniProt Q02156); test: Inhibitory concentration against recombinant human Protein kinase C epsilon isozyme
T2 sequence (Q02156 whole entry): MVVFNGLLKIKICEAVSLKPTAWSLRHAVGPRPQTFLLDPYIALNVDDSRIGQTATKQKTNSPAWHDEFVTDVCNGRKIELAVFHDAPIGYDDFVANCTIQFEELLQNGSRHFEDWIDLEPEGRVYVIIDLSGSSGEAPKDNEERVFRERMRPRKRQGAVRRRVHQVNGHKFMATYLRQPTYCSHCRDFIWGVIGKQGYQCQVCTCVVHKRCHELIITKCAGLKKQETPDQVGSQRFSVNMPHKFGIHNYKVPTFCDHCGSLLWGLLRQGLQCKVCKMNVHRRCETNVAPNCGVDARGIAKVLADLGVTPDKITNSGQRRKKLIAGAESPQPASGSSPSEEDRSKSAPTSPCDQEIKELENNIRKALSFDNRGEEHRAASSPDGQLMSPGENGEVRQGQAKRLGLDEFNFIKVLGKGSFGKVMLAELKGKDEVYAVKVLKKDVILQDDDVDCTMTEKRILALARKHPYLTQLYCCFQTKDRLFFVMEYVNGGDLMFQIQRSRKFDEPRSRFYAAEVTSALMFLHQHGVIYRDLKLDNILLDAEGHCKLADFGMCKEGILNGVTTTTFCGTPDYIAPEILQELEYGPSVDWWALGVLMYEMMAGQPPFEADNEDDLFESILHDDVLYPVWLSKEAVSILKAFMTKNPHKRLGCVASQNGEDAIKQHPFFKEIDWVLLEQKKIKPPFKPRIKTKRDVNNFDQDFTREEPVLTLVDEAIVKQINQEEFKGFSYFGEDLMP

[6] = biological target: T3, Protein kinase C zeta type (Homo sapiens, UniProt Q05513); test: Inhibitory concentration against recombinant human Protein kinase C zeta isozyme
T3 sequence (Q05513 whole entry): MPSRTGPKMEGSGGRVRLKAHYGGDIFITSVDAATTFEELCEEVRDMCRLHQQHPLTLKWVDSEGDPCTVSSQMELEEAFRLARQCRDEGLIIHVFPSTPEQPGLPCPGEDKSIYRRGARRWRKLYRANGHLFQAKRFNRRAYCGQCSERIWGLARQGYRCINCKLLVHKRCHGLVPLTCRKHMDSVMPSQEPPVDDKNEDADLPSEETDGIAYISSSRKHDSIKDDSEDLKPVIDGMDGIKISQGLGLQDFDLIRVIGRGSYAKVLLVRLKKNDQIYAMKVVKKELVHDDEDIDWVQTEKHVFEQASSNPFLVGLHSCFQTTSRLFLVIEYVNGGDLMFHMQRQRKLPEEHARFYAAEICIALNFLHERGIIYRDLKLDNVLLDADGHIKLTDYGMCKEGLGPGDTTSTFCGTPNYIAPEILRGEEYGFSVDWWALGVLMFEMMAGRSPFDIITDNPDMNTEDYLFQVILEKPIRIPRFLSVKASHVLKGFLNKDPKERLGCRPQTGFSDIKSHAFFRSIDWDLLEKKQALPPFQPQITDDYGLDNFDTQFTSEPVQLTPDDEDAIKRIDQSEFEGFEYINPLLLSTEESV

[7] = biological target: Protein kinase C alpha type (Homo sapiens, UniProt P17252); test: Inhibitory concentration against recombinant human Protein kinase C alpha isozyme
[8] = biological target: T1, Protein kinase C beta type; test: Inhibitory concentration against recombinant human Protein kinase C beta 2 isozyme
[9] = biological target: Protein kinase C delta type (Homo sapiens, UniProt Q05655); test: Inhibitory concentration against recombinant human Protein kinase C delta isozyme
Chain of Protein kinase C delta type (Q05655 whole entry): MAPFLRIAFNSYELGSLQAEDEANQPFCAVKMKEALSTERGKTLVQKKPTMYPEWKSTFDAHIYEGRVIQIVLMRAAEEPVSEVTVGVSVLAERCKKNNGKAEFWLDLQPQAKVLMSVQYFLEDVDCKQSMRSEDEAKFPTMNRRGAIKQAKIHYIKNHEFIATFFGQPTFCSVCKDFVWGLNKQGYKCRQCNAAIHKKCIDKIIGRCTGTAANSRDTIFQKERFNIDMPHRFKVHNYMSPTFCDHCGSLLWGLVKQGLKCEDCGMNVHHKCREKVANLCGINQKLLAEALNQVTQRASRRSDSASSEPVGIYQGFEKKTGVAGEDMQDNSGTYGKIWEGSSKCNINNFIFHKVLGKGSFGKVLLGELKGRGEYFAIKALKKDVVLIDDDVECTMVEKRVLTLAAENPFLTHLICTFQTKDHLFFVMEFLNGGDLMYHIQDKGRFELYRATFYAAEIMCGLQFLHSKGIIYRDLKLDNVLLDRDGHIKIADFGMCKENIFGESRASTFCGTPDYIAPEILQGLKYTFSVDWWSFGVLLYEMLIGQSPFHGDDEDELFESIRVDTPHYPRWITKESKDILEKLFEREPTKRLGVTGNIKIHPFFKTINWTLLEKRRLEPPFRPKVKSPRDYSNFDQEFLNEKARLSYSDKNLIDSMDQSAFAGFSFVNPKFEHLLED

T1 sequence (P05771 whole entry): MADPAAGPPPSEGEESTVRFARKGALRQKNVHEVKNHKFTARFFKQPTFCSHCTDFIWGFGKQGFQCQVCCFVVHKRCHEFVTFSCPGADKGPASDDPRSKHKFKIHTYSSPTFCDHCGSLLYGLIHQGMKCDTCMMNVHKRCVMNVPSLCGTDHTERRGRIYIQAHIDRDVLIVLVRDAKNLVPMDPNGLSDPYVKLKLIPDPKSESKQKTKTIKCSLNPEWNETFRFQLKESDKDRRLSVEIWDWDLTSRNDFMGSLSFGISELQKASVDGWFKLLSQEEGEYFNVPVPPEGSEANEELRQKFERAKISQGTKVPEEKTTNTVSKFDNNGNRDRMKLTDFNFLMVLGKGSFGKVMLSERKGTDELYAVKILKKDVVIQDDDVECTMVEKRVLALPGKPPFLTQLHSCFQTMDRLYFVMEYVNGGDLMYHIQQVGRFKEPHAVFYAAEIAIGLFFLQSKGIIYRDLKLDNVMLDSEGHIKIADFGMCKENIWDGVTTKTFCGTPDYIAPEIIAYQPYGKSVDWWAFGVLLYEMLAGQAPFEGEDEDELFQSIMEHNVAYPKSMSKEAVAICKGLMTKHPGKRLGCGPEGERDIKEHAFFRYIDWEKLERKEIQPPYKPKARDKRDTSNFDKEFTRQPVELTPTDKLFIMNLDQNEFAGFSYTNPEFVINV
Chain of Protein kinase C eta type (P24723 whole entry): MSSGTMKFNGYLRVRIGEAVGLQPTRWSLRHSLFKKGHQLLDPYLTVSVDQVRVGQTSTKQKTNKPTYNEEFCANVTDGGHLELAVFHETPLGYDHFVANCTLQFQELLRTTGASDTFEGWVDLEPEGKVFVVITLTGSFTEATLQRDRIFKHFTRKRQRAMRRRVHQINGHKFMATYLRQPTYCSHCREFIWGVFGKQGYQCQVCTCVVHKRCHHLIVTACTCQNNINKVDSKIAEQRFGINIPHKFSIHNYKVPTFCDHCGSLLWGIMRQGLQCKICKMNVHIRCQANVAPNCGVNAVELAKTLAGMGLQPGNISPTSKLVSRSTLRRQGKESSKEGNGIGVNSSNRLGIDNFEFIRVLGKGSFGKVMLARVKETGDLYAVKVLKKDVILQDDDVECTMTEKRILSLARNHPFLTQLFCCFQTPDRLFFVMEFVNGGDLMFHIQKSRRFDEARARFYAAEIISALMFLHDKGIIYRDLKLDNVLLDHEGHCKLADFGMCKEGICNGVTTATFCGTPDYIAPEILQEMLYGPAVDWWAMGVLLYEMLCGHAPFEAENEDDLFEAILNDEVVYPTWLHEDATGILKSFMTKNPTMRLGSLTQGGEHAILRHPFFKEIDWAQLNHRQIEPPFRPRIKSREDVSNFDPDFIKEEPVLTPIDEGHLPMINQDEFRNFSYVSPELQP

SMILES	IC50 [1] [nM]	IC50 [2] [nM]	IC50 [3] [nM]	IC50 [4] [nM]	IC50 [5] [nM]	IC50 [6] [nM]	IC50 [7] [nM]	IC50 [8] [nM]	IC50 [9] [nM]
O=C(N[C@@H]1C2CC(C3CCCC32)[C@H]1OC(=O)c1cc(O)c(C(=O)c2c(O)cccc2C(=O)O)c(O)c1)c1ccc(O)cc1 (stereo partly drawn)	32000	–	–	–	–	–	–	–	–
O=C(N[C@@H]1CCCCC[C@H]1OC(=O)c1cc(O)c(C(=O)c2c(O)cccc2C(=O)O)c(O)c1)c1ccc(O)cc1	1400	–	–	–	–	–	–	–	–
O=C(N[C@@H]1CS(=O)(=O)CCC[C@H]1OC(=O)c1cc(O)c(C(=O)c2c(O)cccc2C(=O)O)c(O)c1)c1ccc(O)cc1	38000	5200	4300	800	45000	> 150000	9600	3600	4000
O=C(N[C@@H]1COCCC[C@H]1OC(=O)c1cc(O)c(C(=O)c2c(O)cccc2C(=O)O)c(O)c1)c1ccc(O)cc1	450	2500	1000	10	16000	> 150000	6700	3300	90
O=C(N[C@@H]1CC(O)C[C@H]1OC(=O)c1cc(O)c(C(=O)c2c(O)cccc2C(=O)O)c(O)c1)c1ccc(O)cc1 (stereo partly drawn)	130	20	20	3	100	–	40	10	5
CS(=O)(=O)N1C[C@@H](NC(=O)c2ccc(O)cc2)[C@H](OC(=O)c2cc(O)c(C(=O)c3c(O)cccc3C(=O)O)c(O)c2)C1	4500	330	400	62	1300	> 150000	910	350	35
CN1C2CCC1C(NC(=O)c1ccc(O)cc1)C(OC(=O)c1cc(O)c(C(=O)c3c(O)cccc3C(=O)O)c(O)c1)C2 (stereo not drawn)	> 50000	–	–	–	–	–	–	–	–
NC[C@H]1C[C@@H](NC(=O)c2ccc(O)cc2)[C@H](OC(=O)c2cc(O)c(C(=O)c3c(O)cccc3C(=O)O)c(O)c2)C1	170	4	5	3	30	2800	20	4	6
NC[C@@H]1C[C@@H](NC(=O)c2ccc(O)cc2)[C@H](OC(=O)c2cc(O)c(C(=O)c3c(O)cccc3C(=O)O)c(O)c2)C1	90	5	10	3	30	3100	20	5	20
O=C(N[C@@H]1C[C@@H](O)C[C@H]1OC(=O)c1cc(O)c(C(=O)c2c(O)cccc2C(=O)O)c(O)c1)c1ccc(O)cc1	250	30	30	4	150	–	50	20	6
CC1(C)C2CCC1(C)[C@@H](OC(=O)c1cc(O)c(C(=O)c3c(O)cccc3C(=O)O)c(O)c1)[C@@H]2NC(=O)c1ccc(O)cc1 (stereo partly drawn)	26000	310	210	310	3600	> 50000	410	80	340
CNC(=O)N1C[C@@H](NC(=O)c2ccc(O)cc2)[C@H](OC(=O)c2cc(O)c(C(=O)c3c(O)cccc3C(=O)O)c(O)c2)C1	3000	680	410	130	3600	> 50000	2200	1800	40
N[C@@H]1C[C@@H](NC(=O)c2ccc(O)cc2)[C@H](OC(=O)c2cc(O)c(C(=O)c3c(O)cccc3C(=O)O)c(O)c2)C1	50	4	5	3	10	1200	20	2	5
CC(=O)N1C[C@@H](NC(=O)c2ccc(O)cc2)[C@H](OC(=O)c2cc(O)c(C(=O)c3c(O)cccc3C(=O)O)c(O)c2)C1	3600	710	390	30	3700	> 150000	1200	820	60
O=C(N[C@@H]1CNC[C@H]1OC(=O)c1cc(O)c(C(=O)c2c(O)cccc2C(=O)O)c(O)c1)c1ccc(O)cc1	70	–	–	–	–	–	–	–	–
O=C(N[C@@H]1CNCC[C@H]1OC(=O)c1cc(O)c(C(=O)c2c(O)cccc2C(=O)O)c(O)c1)c1ccc(O)cc1	350	–	–	90	–	–	–	–	–
O=C(N[C@@H]1C[C@@H](CO)C[C@H]1OC(=O)c1cc(O)c(C(=O)c2c(O)cccc2C(=O)O)c(O)c1)c1ccc(O)cc1	220	60	50	20	270	–	80	20	20
O=C(N[C@@H]1C[C@H](CO)C[C@H]1OC(=O)c1cc(O)c(C(=O)c2c(O)cccc2C(=O)O)c(O)c1)c1ccc(O)cc1	230	4	5	2	160	–	10	3	4
O=C(N[C@@H]1CSCCC[C@H]1OC(=O)c1cc(O)c(C(=O)c2c(O)cccc2C(=O)O)c(O)c1)c1ccc(O)cc1	7500	3800	1000	100	5900	–	3300	2400	90
CC(C)N1C[C@@H](NC(=O)c2ccc(O)cc2)[C@H](OC(=O)c2cc(O)c(C(=O)c3c(O)cccc3C(=O)O)c(O)c2)C1	< 330	60	90	4	50	–	240	70	40
COC(=O)N1C[C@@H](NC(=O)c2ccc(O)cc2)[C@H](OC(=O)c2cc(O)c(C(=O)c3c(O)cccc3C(=O)O)c(O)c2)C1	13000	810	540	90	4800	> 150000	540	2700	100
O=C(N[C@H]1CNCCC[C@@H]1OC(=O)c1cc(O)c(C(=O)c2c(O)cccc2C(=O)O)c(O)c1)c1ccc(O)cc1	–	500	400	260	–	> 150000	3000	880	420
O=C(N[C@@H]1CN2CCC(CC2)[C@H]1OC(=O)c1cc(O)c(C(=O)c2c(O)cccc2C(=O)O)c(O)c1)c1ccc(O)cc1	1700	26	140	26	170	–	410	69	110
O=C(N[C@@H]1C2CCC(C2)[C@H]1OC(=O)c1cc(O)c(C(=O)c2c(O)cccc2C(=O)O)c(O)c1)c1ccc(O)cc1 (stereo partly drawn)	1900	50	40	20	30	–	60	30	20
O=C(NC1CNCCCC1OC(=O)c1cc(O)c(C(=O)c2c(O)cccc2C(=O)O)c(O)c1)c1ccc(O)cc1 (racemic)	–	–	–	–	–	3500	70	–	20
O=C(N[C@@H]1CNCCC[C@H]1OC(=O)c1cc(O)c(C(=O)c2c(O)cccc2C(=O)O)c(O)c1)c1ccc(O)cc1 [BALANOL]	–	–	20	–	–	7400	–	–	4
